Assay results taken from patent US20230042509A1, “TREATMENT FOR DISEASES CAUSED BY RNA VIRUSES” (Amerimmune LLC, priority 2021, published 2023).

Legend:
caspase-1 = caspase-1 (Homo sapiens, UniProt P29466); test: Ex vivo stimulation study: active caspase-1 in CD4 T cells after whole blood incubation with caspase inhibitors (Example 9); format: cell-based; settings: whole blood incubated with inhibitor, 24 hrs later with or without nigericin stimulation
[1] = in vivo; cited from earlier work
mild COVID-19 = test: Phase 1 double-blinded placebo-controlled safety and tolerability study in mild-COVID-19 outpatients; format: in vivo, human
Experimental: A double-blinded, placebo-controlled randomized safety and tolerability study (1:1 active:placebo) was performed in a number symptomatic outpatient mild-COVID-19 patients receiving standard of care therapy. A total of 13 patients were enrolled at a single site in New York City. Treatment involved administering Emricasan (EMR) (or placebo) at 25 mg BID dosing for 14 days, with follow-up for an additional month. […] This study was thus designed to evaluate safety and tolerability, with the primary endpoint being the difference, if any, between treatment-related adverse events (AEs), including severe adverse events (SAEs), if any, in the active (EMR) and placebo groups through day 14. The pharmacokinetics (PK) of EMR has been extensively studied in earlier clinical trials. Accordingly, patients in this Phase 1 study were sampled at the end of the study to confirm that Emricasan pharmacokinetics was not altered in COVID-19 patients. Secondary endpoints included various clinical and laboratory measures and patient reported outcomes (PROs) using a COVID-19-related assessment tool.

caspase-3 = target: T1, caspase-3 (Homo sapiens, UniProt P42574); test: Caspase-3 in red blood cells incubated with patient plasma; format: cell-based
T1 construct: EMR suppressed the caspase-3 up-regulation in the COVID-19 plasma incubated samples; endogenous in cells; host or cells: red blood cells of healthy subjects incubated with patient plasma
T1 sequence (P42574 29-277): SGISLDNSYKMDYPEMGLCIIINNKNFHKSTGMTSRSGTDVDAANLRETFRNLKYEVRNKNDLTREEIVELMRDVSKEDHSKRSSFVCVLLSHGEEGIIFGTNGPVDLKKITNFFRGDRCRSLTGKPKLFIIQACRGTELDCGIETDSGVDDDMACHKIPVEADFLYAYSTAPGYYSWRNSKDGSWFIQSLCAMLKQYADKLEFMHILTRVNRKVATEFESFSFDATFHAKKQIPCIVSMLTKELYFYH

[2] = test system: PBMCs isolated from COVID-19 patient samples; test: "Red ring" contaminating RBC layer in PBMC preparation; format: cell-based, human; settings: 1 micromolar, room temperature, 17 hours
Excerpt: One of the observations made during the preparation of peripheral blood mononuclear cells (PBMC) for some of the experiments described herein was the presence of a contaminating red blood cell (RBC) layer in the PBMC layer, which was referred to as a “red ring”. This “red ring” was present in all COVID-19 patient samples, with no difference between critically ill patients and those who were only on supportive care outside the ICU setting (see FIG. 12A).
When PBMCs isolated from COVID-19 patient samples were incubated with Emricasan (1 micromolar) at room temperature for 17 hours, a decrease in the “red ring” was observed.

Caspase 1 = target: T2, Caspase 1 (Homo sapiens, UniProt P29466); test: FLICA flow cytometry of active caspase-1 in PBMCs from Emricasan-treated COVID-19(+) whole blood (Example 7); format: cell-based; settings: 1 μM, 17 hours (overnight) at room temperature on a rocker; 3 samples from COVID-19 patients
T2 sequence (P29466 120-297 limits assumed): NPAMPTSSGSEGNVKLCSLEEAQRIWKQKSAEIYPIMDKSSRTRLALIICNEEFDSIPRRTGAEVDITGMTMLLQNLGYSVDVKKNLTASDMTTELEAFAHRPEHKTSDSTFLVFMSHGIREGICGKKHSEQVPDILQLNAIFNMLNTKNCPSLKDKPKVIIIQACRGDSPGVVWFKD
T2 sequence (P29466 317-404 limits assumed): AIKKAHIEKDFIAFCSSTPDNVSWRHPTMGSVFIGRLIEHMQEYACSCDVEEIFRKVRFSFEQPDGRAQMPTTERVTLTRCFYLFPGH

Row | Compound | T-helper cell caspase-1 expression in COVID-19 samples (caspase-1) | safety and tolerance profile in humans [1] | serious adverse events (mild COVID-19; 25 mg BID for 14 days) | safety and tolerability (mild COVID-19; 25 mg BID for 14 days, 2 weeks of dosing and week 10 follow up, compared to placebo) | resolution of symptoms most commonly associated with mild COVID-19 (cough, headache, fatigue) (mild COVID-19; 25 mg BID for 14 days, at day 7, continued through Day 45, patients who completed treatment) | caspase biomarkers (mild COVID-19; all subjects in the EMR treatment group) | caspase-3 up-regulation in RBCs (caspase-3; COVID-19 plasma incubated samples) | baseline caspase-3 expression levels in RBCs (caspase-3; influenza-plasma incubated samples) | "red ring" (contaminating RBC layer) [2] | T-helper cell caspase-1 upregulation in healthy subjects (caspase-1) | samples with inhibition of nigericin-induced Caspase-1 activity (Caspase 1)
1 | CCO[C@@H]1OC(=O)C[C@@H]1NC(=O)[C@@H]1CCCN1C(=O)[C@@H](NC(=O)c1ccc(N)c(Cl)c1)C(C)(C)C [VX765] | did not show a strong similar suppressive effect |  |  |  |  |  |  |  |  |  | 
2 | C[C@H](NC(=O)C(=O)Nc1ccccc1C(C)(C)C)C(=O)N[C@@H](CC(=O)O)C(=O)COc1c(F)c(F)cc(F)c1F [Emricasan, (3S)-3-{[(2S)-2-{[2-(2-tert-butylanilino)-2-oxoacetyl]amino}propanoyl]amino}-4-oxo-5-(2,3,5,6-tetrafluorophenoxy)pentanoic acid] | suppressed | excellent safety and tolerance profile | no reports of serious adverse events | safe and well tolerated | complete resolution | decreases | suppressed | did not change | decrease | prevented its upregulation | ⅓
